# Reference: US4100346A, “Certain 7(o-amino-methyl- or methylaminomethylphenyl- or cyclohexadienyl- or thienylacetamide)-3[1-carboxymethyl-(or ethyl- or propyl-)-tetrazol-5-ylthiomethyl]-3-cephem-4-carboxylic acids” (Bristol-Myers Company, priority 1976, dated 1978)
# Where two headings read alike, the source gives them in different places.
# Legend:
# Enterobacter cloacae = assay: Effect of inoculum size on susceptibility of Enterobacteriaceae
# Providencia stuartii = assay: Growth inhibitory activity, antibiotic dilution technique; details: Providencia stuartii, read-out: percent of strains inhibited
# Listeria monocytogenes = assay: as above; details: read-out: Minimum inhibitory concentration
# Alcaligenes sp. = assay: as above
# Staphylococcus aureus [1] = assay: Intramuscular treatment of systemically infected mice; type: in vivo; details: im, read-out: PD50 /treatment
# Description: (§1) Treatment of Systemically Infected Mice. The procedures were identical with those published previously [Leitner et al., BL-S640, a Cephalosporin With a Broad Spectrum of Antibacterial Activity: Bioavailability and Therapeutic Properties in Rodents, Antimicrob. Agents Chemother. 7:306-310, (1975)], except that:
# (§2) (a) the hog gastric mucin used in infections with Staphylococcus aureus No. 2 was purchased from American Laboratories, Inc., Omaha, Neb. (lot No. 154163) and b) that the medium used to suspend all other organisms contained 3% (rather than 4%) hog gastric mucin (type 1701W, Wilson Laboratories, Inc., Park Forest South, Ill.).
# (§3) *Animals infected with penicillinase-producing staphyloccal strains (No.
# (§4) and 3) were treated 0 and 2 hours after infection; the others were treate
# (§5) 1 and 3.5 hours after infection.
# Streptococcus pneumoniae = assay: as above; type: in vivo; details: im, 3.5 h, read-out: PD50 /treatment
# Description: as §1, §2, §3, §4, §5
# Streptococcus pyogenes = assay: as above; type: in vivo; details: im, 3.5 h, read-out: PD50 /treatment
# Description: as §1, §2, §3, §4, §5
# Proteus rettgeri = assay: Effect of inoculum size on susceptibility of Enterobacteriaceae; details: Providencia rettgeri
# Staphylococcus Aureus [2] = assay: Effect of inoculum size on susceptibility of Staphylococcus aureus; type: cell-based; details: for MIC: Staphylococcus aureus, geometric means, read-out: Minimum inhibitory concentration
# Serratia marcescens = assay: Growth inhibitory activity, antibiotic dilution technique; details: read-out: Minimum inhibitory concentration
# Bacteroides Fragilis = assay: Growth inhibitory activity, antibiotic dilution technique (obligate anaerobes); type: cell-based; details: 3 strains, geometric mean when applicable, read-out: Minimum inhibitory concentration
# Experimental: Antibiotic spectrum. […] Procedures were as follows:
# c. Obligate anaerobes. The assay was performed on solid medium, consisting of Brain Heart Infusion Broth (BBL) supplemented with 5% defibrinated sheep blood and 1% Ionagar (Colab). […] The plates were incubated at 37° C. for 48 hours under the oxygen-free conditions attained with a Gas-Pak (BBL) Brewer jar system.
# Proteus mirabilis = assay: Effect of inoculum size on susceptibility of Enterobacteriaceae
# Vibrio cholerae = assay: Growth inhibitory activity, antibiotic dilution technique; details: read-out: Minimum inhibitory concentration
# Pseudomonas aeruginosa = assay: as above; details: read-out: Minimum inhibitory concentration
# Proteus vulgaris = assay: Effect of inoculum size on susceptibility of Enterobacteriaceae
smiles,measurement,setting,value
Cc1nnc(SCC2=C(C(=O)O)N3C(=O)[C@@H](NC(=O)Cn4cnnn4)[C@H]3SC2)s1 [Cefazolin],MIC,"Enterobacter cloacae; read-out: Minimum Inhibitory Concentration, Enterobacter cloacae strain 1, A, Inoculum of 10^2 organisms",2 µg/mL
same,MIC,"Enterobacter cloacae; read-out: Minimum Inhibitory Concentration, Enterobacter cloacae strain 1, B, Inoculum of 10^6 organisms",> 250 µg/mL
same,MIC,"Enterobacter cloacae; read-out: Minimum Inhibitory Concentration, Enterobacter cloacae strain 2, A, Inoculum of 10^2 organisms",32 µg/mL
same,MIC,"Enterobacter cloacae; read-out: Minimum Inhibitory Concentration, Enterobacter cloacae strain 2, B, Inoculum of 10^6 organisms",> 250 µg/mL
same,MIC,"Enterobacter cloacae; read-out: Minimum Inhibitory Concentration, Enterobacter cloacae strain 3, A, Inoculum of 10^2 organisms",8 µg/mL
same,MIC,"Enterobacter cloacae; read-out: Minimum Inhibitory Concentration, Enterobacter cloacae strain 3, B, Inoculum of 10^6 organisms",250 µg/mL
same,MIC,"Enterobacter cloacae; read-out: Minimum Inhibitory Concentration, Enterobacter cloacae strain 4, A, Inoculum of 10^2 organisms",63 µg/mL
same,MIC,"Enterobacter cloacae; read-out: Minimum Inhibitory Concentration, Enterobacter cloacae strain 4, B, Inoculum of 10^6 organisms",> 250 µg/mL
same,MIC,"Enterobacter cloacae; read-out: Minimum Inhibitory Concentration, Enterobacter cloacae strain 5, A, Inoculum of 10^2 organisms",8 µg/mL
same,MIC,"Enterobacter cloacae; read-out: Minimum Inhibitory Concentration, Enterobacter cloacae strain 5, B, Inoculum of 10^6 organisms",> 250 µg/mL
same,inhibition at 16 µg/mL,Providencia stuartii,23%
same,MIC,Listeria monocytogenes,1.2 µg/mL
same,MIC,"Alcaligenes sp.; read-out: Minimum inhibitory concentration, Alcaligenes sp., 2 strains, geometric mean when applicable",> 125 µg/mL
same,MIC,"Alcaligenes sp.; read-out: Minimum inhibitory concentration, Alcaligenes sp., 4 strains, geometric mean when applicable",> 105 µg/mL
same,MIC,"Alcaligenes sp.; read-out: Minimum inhibitory concentration, Alcaligenes sp., 5 strains, geometric mean when applicable",4.6 µg/mL
same,ED50,"Staphylococcus aureus [1]; 3.5 h, Staphylococcus aureus strain 1, challenge 2 × 10^5 - 3 × 10^5, treated 1 and 3.5 hours after infection",0.09 mg/kg
same,ED50,"Staphylococcus aureus [1]; Staphylococcus aureus strain 2 (penicillinase-producing), challenge 1 × 10^9, treated 0 and 2 hours after infection",5 mg/kg
same,ED50,"Staphylococcus aureus [1]; Staphylococcus aureus strain 3 (penicillinase-producing), challenge 5 × 10^8 - 7 × 10^9, treated 0 and 2 hours after infection",23 mg/kg
same,ED50,"Streptococcus pneumoniae; Streptococcus pneumoniae strain 1, challenge 2 × 10^3 - 9 × 10^3, treated 1 and 3.5 hours after infection",0.39 mg/kg
same,ED50,"Streptococcus pneumoniae; Streptococcus pneumoniae strain 2, challenge 1 × 10^4 - 3 × 10^4, treated 1 and 3.5 hours after infection",0.57 mg/kg
same,ED50,"Streptococcus pyogenes; Streptococcus pyogenes strain 1, challenge 2 × 10^3 -6 × 10^3, treated 1 and 3.5 hours after infection",0.57 mg/kg
same,ED50,"Streptococcus pyogenes; Streptococcus pyogenes strain 2, challenge 1 × 10^4 - 5 × 10^4, treated 1 and 3.5 hours after infection",0.27 mg/kg
same,MIC,"Proteus rettgeri; read-out: Minimum Inhibitory Concentration, Proteus rettgeri strain 1, A, Inoculum of 10^2 organisms",0.5 µg/mL
same,MIC,"Proteus rettgeri; read-out: Minimum Inhibitory Concentration, Proteus rettgeri strain 1, B, Inoculum of 10^6 organisms",> 250 µg/mL
same,MIC,"Proteus rettgeri; read-out: Minimum Inhibitory Concentration, Proteus rettgeri strain 2, A, Inoculum of 10^2 organisms",0.25 µg/mL
same,MIC,"Proteus rettgeri; read-out: Minimum Inhibitory Concentration, Proteus rettgeri strain 2, B, Inoculum of 10^6 organisms",> 250 µg/mL
same,MIC,"Proteus rettgeri; read-out: Minimum Inhibitory Concentration, Proteus rettgeri strain 3, A, Inoculum of 10^2 organisms",2 µg/mL
same,MIC,"Proteus rettgeri; read-out: Minimum Inhibitory Concentration, Proteus rettgeri strain 3, B, Inoculum of 10^6 organisms",> 250 µg/mL
same,MIC,"Staphylococcus Aureus [2]; Lacking penicillinase, 3 strains, A, Inoculum of 10^2 organisms",0.13 µg/mL
same,MIC,"Staphylococcus Aureus [2]; Lacking penicillinase, 3 strains, B, inoculum of 10^6 organisms",0.2 µg/mL
same,MIC,"Staphylococcus Aureus [2]; Penicillinase producer, 26 strains, A, Inoculum of 10^2 organisms",0.22 µg/mL
same,MIC,"Staphylococcus Aureus [2]; Penicillinase producer, 26 strains, B, inoculum of 10^6 organisms",0.79 µg/mL
same,effect of cell concentration on growth inhibitory activity,Staphylococcus Aureus [2]; penicillinase-producing strains,moderately
same,MIC,Serratia marcescens,> 125 µg/mL
same,MIC,Bacteroides Fragilis,50 µg/mL
same,MIC,"Proteus mirabilis; read-out: Minimum Inhibitory Concentration, Proteus mirabilis strain 1, A, Inoculum of 10^2 organisms",4 µg/mL
same,MIC,"Proteus mirabilis; read-out: Minimum Inhibitory Concentration, Proteus mirabilis strain 1, B, Inoculum of 10^6 organisms",8 µg/mL
same,MIC,"Proteus mirabilis; read-out: Minimum Inhibitory Concentration, Proteus mirabilis strain 2, A, Inoculum of 10^2 organisms",4 µg/mL
same,MIC,"Proteus mirabilis; read-out: Minimum Inhibitory Concentration, Proteus mirabilis strain 2, B, Inoculum of 10^6 organisms",16 µg/mL
same,MIC,"Proteus mirabilis; read-out: Minimum Inhibitory Concentration, Proteus mirabilis strain 3, A, Inoculum of 10^2 organisms",8 µg/mL
same,MIC,"Proteus mirabilis; read-out: Minimum Inhibitory Concentration, Proteus mirabilis strain 3, B, Inoculum of 10^6 organisms",32 µg/mL
same,MIC,"Proteus mirabilis; read-out: Minimum Inhibitory Concentration, Proteus mirabilis strain 4, A, Inoculum of 10^2 organisms",4 µg/mL
same,MIC,"Proteus mirabilis; read-out: Minimum Inhibitory Concentration, Proteus mirabilis strain 4, B, Inoculum of 10^6 organisms",32 µg/mL
same,MIC,"Proteus mirabilis; read-out: Minimum Inhibitory Concentration, Proteus mirabilis strain 5, A, Inoculum of 10^2 organisms",4 µg/mL
same,MIC,"Proteus mirabilis; read-out: Minimum Inhibitory Concentration, Proteus mirabilis strain 5, B, Inoculum of 10^6 organisms",16 µg/mL
same,MIC,Vibrio cholerae,4 µg/mL
same,MIC,Pseudomonas aeruginosa,> 125 µg/mL
same,MIC,"Proteus vulgaris; read-out: Minimum Inhibitory Concentration, Proteus vulgaris strain 1, A, Inoculum of 10^2 organisms",4 µg/mL
same,MIC,"Proteus vulgaris; read-out: Minimum Inhibitory Concentration, Proteus vulgaris strain 1, B, Inoculum of 10^6 organisms",250 µg/mL
same,MIC,"Proteus vulgaris; read-out: Minimum Inhibitory Concentration, Proteus vulgaris strain 2, A, Inoculum of 10^2 organisms",8 µg/mL
same,MIC,"Proteus vulgaris; read-out: Minimum Inhibitory Concentration, Proteus vulgaris strain 2, B, Inoculum of 10^6 organisms",32 µg/mL
same,MIC,"Proteus vulgaris; read-out: Minimum Inhibitory Concentration, Proteus vulgaris strain 4, A, Inoculum of 10^2 organisms",8 µg/mL
same,MIC,"Proteus vulgaris; read-out: Minimum Inhibitory Concentration, Proteus vulgaris strain 4, B, Inoculum of 10^6 organisms",32 µg/mL
